{
  "source": "patent US7566812B2",
  "about": "“Transgenic mouse models of hepatitis C virus (HCV) and identification of HCV therapeutics” (priority 2004, dated 2009)",
  "key": {"wild-type mice": {"system": "wild-type mice", "assay": "Survival after TNF-α/D-Gal challenge, wild-type mice", "assay_type": "in vivo, mouse", "experimental": "(§1) This Example describes several of the approaches used to induce hepatic injury in the NS3/4A-Tg mice and the techniques used to analyze the data. All NS3/4A-Tg or wild-type (Wt) mice used in these experiments were male and/or females between 6-12 weeks old. All groups of mice contained five to ten mice. Comparisons were done in age matched animals, excluding an age dependent difference when comparing groups. For the carbon tetrachloride (CCl4) treatment, CCl4 was diluted in 100 μL olive oil and administered intraperitoneal (i.p.) as a single dose to NS3/4A-Tg and Wt mice. Each mouse was treated with 10 mg (0.5 g/kg) CCl4 (Sigma). Serum from individual mice was collected at various time intervals (12, 24, 48, and 72 hours) after CCl4-treatment by retro-orbital bleeding. Serum alanine aminotransferase (ALT) values were measured to evaluate the extent of liver injury. […] Serum ALT values were measured to evaluate the extent of liver injury. […] Serum ALT values were measured to evaluate the extent of liver injury. […] Serum ALT values were measured to evaluate the extent of liver injury. […] Serum ALT values were measured to evaluate the extent of liver injury.\n(§2) SB203580 (Calbiochem) was dissolved/diluted in sterile dH2O and administered to mice intra orally (i.o.). […] The following Example teaches how the above data were statistically analyzed."}, "NS3/4A-Tg mice": {"system": "NS3/4A-Tg mice", "assay": "Survival after TNF-α/D-Gal challenge, NS3/4A transgenic mice", "assay_type": "in vivo, mouse", "experimental": "as §1, §2"}, "HCV": {"system": "HCV", "assay": "Treatment of a patient with HCV related complications", "assay_type": "in vivo", "conditions": "repeated course of treatment", "experimental": "A patient in need of treatment of HCV related complications is identified by routine methods. The patient is administered an amount of SB203580, based on the particular patient and the severity of the HCV symptoms. Following a repeated course of treatment, if required, the patient's HCV related symptoms are reduced. In some applications, the reduction of viral lode or another indicator for HCV infection is measured. The next example describes more transgenic organisms that contain the constructs described herein."}, "[1]": {"system": "NS3/4A-SP2/0 tumor cell line", "assay": "In vivo tumor growth assay in immunized Balb/c mice, NS3/4A-SP2/0 cells", "conditions": "3 mg ribavirin with 100, 10 or 1 micrograms coNS3/4A, single immunization", "experimental": "To study whether the constructs described above were capable of eliciting a cell-mediated response against NS3, an in vivo tumor growth assay was performed. To this end, an SP2/0 tumor cell line (SP2/0-Ag14 myeloma cell line (H-2^d)) stably transfected with the NS3/4A gene was made. The SP2/0 cells were maintained in DMEM medium supplemented with 10% fetal calf serum (FCS; Sigma Chemicals, St. Louis, Mo.), 2 mM L-Glutamine, 10 mM HEPES, 100 U/ml Penicillin and 100 μg/ml Streptomycin, 1 mM non-essential amino acids, 50 μM β-mercaptoethanol, 1 mM sodium pyruvate (GIBCO-BRL, Gaithesburgh, Md.). The pcDNA3.1 plasmid containing the NS3/4A gene was linearized by BglII digestion. […]\nTransfected cells were cloned by limiting dilution and selected by addition of 800 μg geneticin (G418)/ml complete DMEM medium after 14 days. […] Bound murine serum antibodies were detected by an alkaline phosphatase conjugated goat anti-mouse IgG (Sigma cell products, Saint Louis, Mo. USA) followed by addition of the substrate pNPP (1 tablet/5 ml of 1 M Diethanolamin buffer with 0.5 mM MgCl2). […] Absorbance was then read at 405 nm.\nThe in vivo growth kinetics of the SP2/0 and the NS3/4A-SP2/0 cell lines were then evaluated in Balb/c mice. […] Each day the size of the tumor was determined through the skin. […]"}, "[2]": {"system": "NS3/4A-EL-4 tumor cell line", "assay": "Tumor challenge model with NS3/4A-EL-4 tumor cells", "assay_type": "in vivo", "conditions": "C57BL/6 mice", "description": "To define the in vivo functional anti-tumor effector cell population, CD4+ or CD8+ T cells were depleted in mice immunized with the coNS3/4A plasmid one week prior to, and during, challenge with the NS3/4A-EL-4 tumor cell line. […] Thus, NS3/4A-specific CD8+ CTLs are the major protective cell at the effector stage in the in vivo model for inhibition of tumor growth.\nThe tumor challenge model was used to evaluate how effective the different immunogens were in priming a protective immunity against growth of NS3/4A-EL4 tumor cells in vivo. To ensure that the effectiveness of the priming event was studied, all mice were immunized only once. Vectors containing NS3/4A were able to rapidly prime protective immune responses as compared to the immunized with the empty pVAX plasmid (p<0.05, ANOVA; FIG. 10). […] The next example examines the prerequisites for priming of CD8+ CTL.\nTo further clarify the prerequisites for priming of CD8+ CTL additional experiments were performed. First, C57BL/6 mice immunized with the NS3-derived CTL peptide were not protected against growth of NS3/4A-EL-4 tumors. […] To further characterize the priming event, groups of B cell (μMT; Kitamura D., et al., Nature, 350: 423-426 (1991)) or CD4 deficient C57BL/6 mice (Rahemtulla A et al., Nature, 353:180-184 (1991)) were immunized once with the coNS3/4A gene using gene gun, and challenged two weeks later (FIG. 10). […]"}, "[3]": {"conditions": "0.5 mg (25 mg/kg) i.o. thirty minutes prior to rm TNF-α/D-Gal"}},
  "data": [
    {"molecule": "C[S+]([O-])c1ccc(-c2nc(-c3ccncc3)c(-c3ccc(F)cc3)[nH]2)cc1", "note": "(stereo not shown) [SB203580]", "values": [
      {"measurement": "impact on the survival rate of wild-type mice provided TNF-alpha", "setting": "wild-type mice; [3]", "value": "no significant"},
      {"measurement": "TNF-alpha sensitivity phenotype (survival) of NS3/4A transgenic mice", "setting": "NS3/4A-Tg mice; [3]", "value": "reverted to TNF-alpha sensitive phenotype"},
      {"measurement": "patient's HCV related symptoms", "setting": "HCV", "value": "reduced"}
    ]},
    {"molecule": "NC(=O)c1ncn([C@@H]2O[C@H](CO)[C@@H](O)[C@H]2O)n1", "note": "[ribavirin, 1-β-D-ribofuranosyl-1,2,4-triazole-3-carboxamide]", "values": [
      {"measurement": "effect of the adjuvant on the effectiveness of the initial coNS3/4A immunization (tumor size)", "setting": "[1]", "value": "dramatically increased the effectiveness"}
    ]},
    {"molecule": "GAVQNEVTL (Artificial Peptide, NS3/4A H-2D Binding Peptide) [NS3-derived CTL peptide]", "values": [
      {"measurement": "protection against growth of NS3/4A-EL-4 tumors", "setting": "[2]", "value": "not protected"}
    ]},
    {"molecule": "TNF-α", "values": [
      {"measurement": "mice killed", "setting": "wild-type mice; 5 μg/kg, non-transgenic mice, within 24 hours", "value": 80, "unit": "%"},
      {"measurement": "survival of the lethal TNF-α dose", "setting": "NS3/4A-Tg mice; 5 μg/kg, NS3/4A-Tg mice", "value": "all NS3/4A-Tg mice survived"}
    ]}
  ]
}
